The record followed here is US20240423207A1, “PICOLINAMIDE COMPOUNDS WITH FUNGICIDAL ACTIVITY” (CORTEVA AGRISCIENCE LLC, priority 2014, published 2024).

Read-outs that look alike come from different tables or passages of the source.

Common to all, as to type: in vivo
In assay [1] the test system is Magnaporthe grisea; Anamorph: Pyricularia oryzae. In words: whole plant or invertebrate. The conditions noted are these: 24 h, read-out: PYRIOR 1 DP disease control.
The subject of assay [2] is Puccinia triticina; Synonym: Puccinia recondita f sp. tritici. In words: Wheat Brown Rust (PUCCRT) fungicidal activity on wheat seedlings. As to conditions: Low Volume, 121.5 g/H. An outline of the steps:
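Yuma wheat seedlings (first leaf emerged) were sprayed to run-off with compound in acetone/water 1:9 (110 ppm Triton X-100), and P. triticina spores were inoculated before or after treatment. Plants were kept overnight in a 22 °C dark dew room at 100% RH, then moved to a 24 °C greenhouse; % control was based on first-leaf severity (0–100%) versus untreated plants.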

Another assay has as its system Venturia inaequalis. In words: Apple Scab (VENTIN) fungicidal activity on apple seedlings. The conditions noted are these: 24 h, 1 Day Protectant, read-out: VENTIN 1 DP disease control. As to the method:
Technical grades of materials were dissolved in acetone, which were then mixed with nine volumes of water (H2O) containing 110 ppm Triton X-100. The fungicide solutions were applied onto wheat seedlings using an automated booth sprayer to run-off. All sprayed plants were allowed to air dry prior to further handling. All fungicides were evaluated using the aforementioned method for their activity vs. all target diseases, unless stated otherwise. Wheat leaf blotch and brown rust activity were also evaluated using track spray applications, in which case the fungicides were formulated as EC formulations, containing 0.1% Trycol 5941 in the spray solutions. Wheat plants (variety Yuma) were grown from seed in a greenhouse in 50% mineral soil/50% soil-less Metro mix until the first leaf was fully emerged, with 7-10 seedlings per pot. These plants were inoculated with an aqueous spore suspension of Septoria tritici either prior to or after fungicide treatments. After inoculation the plants were kept in 100% relative humidity (one day in a dark dew chamber followed by two to three days in a lighted dew chamber at 20° C.) to permit spores to germinate and infect the leaf. The plants were then transferred to a greenhouse set at 20° C. for disease to develop. When disease symptoms were fully expressed on the 1st leaves of untreated plants, infection levels were assessed on a scale of 0 to 100 percent disease severity. Percent disease control was calculated using the ratio of disease severity on treated plants relative to untreated plants. Example D: Evaluation of Fungicidal Activity: Apple Scab (Venturia inaequalis; Bayer code […]) Apple seedlings (variety McIntosh) were grown in soil-less Metro mix, with one plant per pot. Seedlings with two expanding young leaves at the top (older leaves at bottom of the plants were trimmed) were used in the test. Plants were inoculated with a spore suspension of Venturia inaequalis 24 h after fungicide treatment and kept in a 22° C. dew chamber with 100% relative humidity for 48 h, and then moved to a greenhouse set at 20° C. for disease to develop. Fungicide formulation, application and disease assessment on the sprayed leaves followed the procedures as described in the Example A.

Assay [3] deals with Glomerella lagenarium; Anamorph: Colletotrichum lagenarium. Kind of assay: Cucumber Anthracnose (COLLLA) fungicidal activity on cucumber seedlings. As to conditions: Colletotrichum orbiculare, 24 h, 1 Day Protectant, read-out: COLLLA 1 DP disease control. As to the method:
Technical grades of materials were dissolved in acetone, which were then mixed with nine volumes of water (H2O) containing 110 ppm Triton X-100. The fungicide solutions were applied onto wheat seedlings using an automated booth sprayer to run-off. All sprayed plants were allowed to air dry prior to further handling. All fungicides were evaluated using the aforementioned method for their activity vs. all target diseases, unless stated otherwise. Wheat leaf blotch and brown rust activity were also evaluated using track spray applications, in which case the fungicides were formulated as EC formulations, containing 0.1% Trycol 5941 in the spray solutions. Wheat plants (variety Yuma) were grown from seed in a greenhouse in 50% mineral soil/50% soil-less Metro mix until the first leaf was fully emerged, with 7-10 seedlings per pot. These plants were inoculated with an aqueous spore suspension of Septoria tritici either prior to or after fungicide treatments. After inoculation the plants were kept in 100% relative humidity (one day in a dark dew chamber followed by two to three days in a lighted dew chamber at 20° C.) to permit spores to germinate and infect the leaf. The plants were then transferred to a greenhouse set at 20° C. for disease to develop. When disease symptoms were fully expressed on the 1st leaves of untreated plants, infection levels were assessed on a scale of 0 to 100 percent disease severity. Percent disease control was calculated using the ratio of disease severity on treated plants relative to untreated plants. Example J: Evaluation of Fungicidal Activity: Cucumber Anthracnose (Glomerella lagenarium; Anamorph: Colletotrichum lagenarium; Bayer code COLLLA) Cucumber seedlings (variety Bush Pickle) were propagated in soil-less Metro mix, with each pot having one plant, and used in the test when 12 to 14 days old. Test plants were inoculated with an aqueous spore suspension of Colletotrichum lagenarium 24 hr after fungicide treatments. After inoculation the plants were kept in a dew room at 22° C. with 100% relative humidity for 48 hr to permit spores to germinate and infect the leaf. The plants were then transferred to a growth room set at 22° C. for disease to develop. Fungicide formulation, application and disease assessment on the sprayed leaves followed the procedures as described in the Example A.

Where [4] appears, read: 24 h, 1 Day Protectant, read-out: PUCCRT 1DP disease control.
[5] abbreviates: 72 h, 3 Day Curative, read-out: PUCCRT 3DC disease control.

`COc1ccnc(C(=O)N[C@@H](C)C(=O)O[C@@H](C)C(c2ccc(F)cc2F)c2ccc(F)cc2F)c1OC(C)=O` [Cmpd 150]: the pest or weed control at 100 ppm (in assay [1]; with Venturia inaequalis; in assay [3]) was greater than 80% each time. Also, the pest or weed control at 121.5 g/ha in assay [2] (setting [4]) and in assay [2] (setting [5]) was greater than 80% in each case.

Consider `COc1ccnc(C(=O)N[C@@H](C)C(=O)O[C@@H](C)C(c2ccc(F)cc2F)c2ccc(F)cc2F)c1OCOC(C)=O` [Cmpd 148], for which the pest or weed control at 100 ppm (in assay [1]; in the assay on Venturia inaequalis; in assay [3]) was greater than 80% in each case. Further, the pest or weed control at 121.5 g/ha in assay [2] (setting [4]) and in assay [2] (setting [5]) was greater than 80% in each case.

As for `COc1ccnc(C(=O)N[C@@H](C)C(=O)O[C@@H](C)C(c2ccccc2)c2ccccc2)c1OC(=O)C(C)C` [Cmpd 140], the pest or weed control at 100 ppm (in assay [1]; with Venturia inaequalis; in assay [3]) was greater than 80% each time. For the same molecule, the pest or weed control at 121.5 g/ha in assay [2] (setting [4]) was greater than 80%; in assay [2] (setting [5]) it was less than 80%.

For `COc1ccnc(C(=O)N[C@@H](C)C(=O)O[C@@H](C)C(c2ccccc2)c2ccccc2)c1OC(C)=O` [Cmpd 139, (S)-(S)-1,1-diphenylpropan-2-yl 2-(3-acetoxy-4-methoxypicolinamido)propanoate], the pest or weed control at 100 ppm (in assay [1]; with Venturia inaequalis; in assay [3]) was greater than 80% each time. The pest or weed control at 121.5 g/ha in assay [2] (setting [4]) and in assay [2] (setting [5]) was greater than 80% throughout.

Consider `COc1ccnc(C(=O)N[C@@H](C)C(=O)O[C@@H](C)C(c2ccc(F)cc2)c2ccc(F)cc2)c1OCOC(C)=O` [Cmpd 146], for which the pest or weed control at 100 ppm (in assay [1]; in the assay with Venturia inaequalis; in assay [3]) was greater than 80% in each case. In addition, the pest or weed control at 121.5 g/ha in assay [2] (setting [4]) and in assay [2] (setting [5]) was greater than 80% throughout.

For `COc1ccnc(C(=O)N[C@@H](C)C(=O)O[C@@H](C)C(c2ccccc2)c2ccccc2)c1OCOC(C)=O` [Cmpd 141, (S)-(S)-1,1-diphenylpropan-2-yl 2-(3-(acetoxymethoxy)-4-methoxypicolinamido)propanoate], the pest or weed control at 100 ppm (in assay [1]; in the assay with Venturia inaequalis; in assay [3]) was greater than 80% each time. For the same molecule, the pest or weed control at 121.5 g/ha in assay [2] (setting [4]) and in assay [2] (setting [5]) was greater than 80% in each case.

In the case of `COc1ccnc(C(=O)N[C@@H](C)C(=O)O[C@@H](C)C(c2ccc(Cl)cc2)c2ccc(Cl)cc2)c1OCOC(C)=O` [Cmpd 176], the pest or weed control at 100 ppm (in assay [1]; in the assay on Venturia inaequalis; in assay [3]) was greater than 80% in each case. For the same molecule, the pest or weed control at 121.5 g/ha in assay [2] (setting [4]) and in assay [2] (setting [5]) was greater than 80% in each case.

Turning to `COc1ccnc(C(=O)N[C@@H](C)C(=O)O[C@@H](C)C(c2ccc(Cl)cc2)c2ccc(Cl)cc2)c1OC(C)=O` [Cmpd 174], the pest or weed control at 100 ppm in assay [1] was greater than 80%; in the assay on Venturia inaequalis it was less than 80%; in assay [3], greater than 80%. The pest or weed control at 121.5 g/ha was greater than 80% in assay [2] (setting [4]) and less than 80% in assay [2] (setting [5]).

Consider `COc1ccnc(C(=O)N[C@@H](C)C(=O)O[C@@H](C)C(c2ccc(F)cc2)c2ccc(F)cc2)c1OC(C)=O` [Cmpd 145], for which the pest or weed control at 100 ppm (in assay [1]; with Venturia inaequalis; in assay [3]) was greater than 80% throughout. In addition, the pest or weed control at 121.5 g/ha in assay [2] (setting [4]) and in assay [2] (setting [5]) was greater than 80% in each case.

Consider `COc1ccnc(C(=O)N[C@@H](C)C(=O)O[C@@H](C)C(c2ccccc2)c2ccccc2)c1OCOC(=O)C(C)C` [Cmpd 142, (S)-(S)-1,1-diphenylpropan-2-yl 2-(3-((isobutyryloxy)methoxy)-4-methoxypicolinamido)propanoate], for which the pest or weed control at 100 ppm (in assay [1]; with Venturia inaequalis; in assay [3]) was greater than 80% throughout. For the same molecule, the pest or weed control at 121.5 g/ha in assay [2] (setting [4]) and in assay [2] (setting [5]) was greater than 80% each time.
